Results as given in PubChem BioAssay AID2060610 (Molecular Pharmacology Branch, DTP, NCI, 2025).
Values joined by “and” are separate entries in the source; they are usually repeats but may differ in a detail not shown here. Equal entries are not always repeated.

Tested on: 616215-338-R-J1-PDC complex spheroids, viability % test/control
Test: Anticancer human tumor 616215-338-R-J1-PDC patient-derived colon adenocarcinoma cell line growth inhibition [CLK]
Conditions: for viability, T/C: stronger effect = lower value
How it was run: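 Multi-cell-type spheroids combined patient-derived tumor cells with HUVEC endothelial cells and human mesenchymal stem cells. Paired agents were dosed in half-log steps down from about clinical Cmax, or from 10 microM where Cmax was unknown.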

[1] = curve of first compound, second compound 0.0316 µM
[2] = curve of first compound, second compound 0.1 µM
[3] = curve of first compound, second compound 0.316 µM
[4] = curve of first compound, second compound 1 µM
[5] = curve of first compound, second compound 3.16 µM
[6] = curve of first compound, second compound 10 µM
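Also: spheroids exposed to agents for 7 days.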
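For viability, T/C in this document: 100% = DMSO vehicle wells.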

In the case of CCN1CCN(Cc2ccc(Nc3ncc(F)c(-c4cc(F)c5nc(C)n(C(C)C)c5c4)n3)nc2)CC1, the viability, T/C (compound 0.00316 µM) is reported as 104% and 92%, the viability, T/C (compound 0.01 µM) is reported as 125% and 93.7% and the viability, T/C (compound 0.0316 µM) is reported as 111% and 103%. The viability, T/C (compound 0.1 µM) was 139% and 121%, the viability, T/C (compound 0.316 µM) was 158% and 189% and the viability, T/C (compound 1 µM) was 59.4% and 69.7%. It also gave an IC50 (curve of compound) of over 1000 nM.
CC(=O)O[C@H]1C(=O)[C@@]2(C)[C@H]([C@H](OC(=O)c3ccccc3)[C@]3(O)C[C@H](OC(=O)[C@H](O)[C@@H](NC(=O)c4ccccc4)c4ccccc4)C(C)=C1C3(C)C)[C@]1(OC(C)=O)CO[C@@H]1C[C@@H]2O + CNC(=O)c1ccc(Nc2nc(OC3CCCC3)c3c(-c4ccc5nc(C)oc5c4)c[nH]c3n2)c(OC)c1 was tested, and the IC50 [1] was under 31.6 nM, the IC50 [2] was under 31.6 nM and the IC50 [3] was under 31.6 nM. It also gave an IC50 [4] of under 31.6 nM, an IC50 [5] of under 31.6 nM and an IC50 [6] of under 31.6 nM. For the same molecule, the viability, T/C (second compound 0.0316 µM, first compound 0.0316 µM) was 35%, the viability, T/C (second compound 0.0316 µM, first compound 0.1 µM) was 27.8% and the viability, T/C (second compound 0.0316 µM, first compound 0.316 µM) was 23.3%. It also gave a viability, T/C (second compound 0.0316 µM, first compound 1 µM) of 27%, a viability, T/C (second compound 0.0316 µM, first compound 3.16 µM) of 30.8% and a viability, T/C (second compound 0.0316 µM, first compound 10 µM) of 36.2%. It also gave a viability, T/C (second compound 0.1 µM, first compound 0.0316 µM) of 39.9%, a viability, T/C (second compound 0.1 µM, first compound 0.1 µM) of 37.7% and a viability, T/C (second compound 0.1 µM, first compound 0.316 µM) of 35.2%. The viability, T/C (second compound 0.1 µM, first compound 1 µM) was 38.9%, the viability, T/C (second compound 0.1 µM, first compound 3.16 µM) was 41% and the viability, T/C (second compound 0.1 µM, first compound 10 µM) was 44.2%. The viability, T/C (second compound 0.316 µM, first compound 0.0316 µM) was 34.8%, the viability, T/C (second compound 0.316 µM, first compound 0.1 µM) was 40% and the viability, T/C (second compound 0.316 µM, first compound 0.316 µM) was 32%. The viability, T/C (second compound 0.316 µM, first compound 1 µM) was 38.3%, the viability, T/C (second compound 0.316 µM, first compound 3.16 µM) was 58.5% and the viability, T/C (second compound 0.316 µM, first compound 10 µM) was 46%. It also gave a viability, T/C (second compound 1 µM, first compound 0.0316 µM) of 45.6%, a viability, T/C (second compound 1 µM, first compound 0.1 µM) of 53.2% and a viability, T/C (second compound 1 µM, first compound 0.316 µM) of 56.6%. It also gave a viability, T/C (second compound 1 µM, first compound 1 µM) of 60.6%, a viability, T/C (second compound 1 µM, first compound 3.16 µM) of 59.5% and a viability, T/C (second compound 1 µM, first compound 10 µM) of 58.1%. The viability, T/C (second compound 3.16 µM, first compound 0.0316 µM) was 34.3%, the viability, T/C (second compound 3.16 µM, first compound 0.1 µM) was 51.5% and the viability, T/C (second compound 3.16 µM, first compound 0.316 µM) was 63.4%. The viability, T/C (second compound 3.16 µM, first compound 1 µM) was 63%, the viability, T/C (second compound 3.16 µM, first compound 3.16 µM) was 72.1% and the viability, T/C (second compound 3.16 µM, first compound 10 µM) was 63.9%. The viability, T/C (second compound 10 µM, first compound 0.0316 µM) was 39.5%, the viability, T/C (second compound 10 µM, first compound 0.1 µM) was 43.2% and the viability, T/C (second compound 10 µM, first compound 0.316 µM) was 70.7%. For the same molecule, the viability, T/C (second compound 10 µM, first compound 1 µM) was 75%, the viability, T/C (second compound 10 µM, first compound 3.16 µM) was 62.7% and the viability, T/C (second compound 10 µM, first compound 10 µM) was 62%.
NC(=O)C(=Cn1cnc(-c2cc(C(F)(F)F)cc(C(F)(F)F)c2)n1)c1cncnc1 + CN1CCN(c2cc(C(=O)Nc3cc4cc(-c5cnn(C)c5)ccc4cn3)ccn2)CC1 gave an IC50 [1] of 220 nM, an IC50 [2] of 103 nM and an IC50 [3] of under 9.49 nM. It also gave an IC50 [4] of under 9.49 nM, an IC50 [5] of under 9.49 nM and an IC50 [6] of under 9.49 nM. For the same molecule, the viability, T/C (second compound 0.0316 µM, first compound 0.00949 µM) was 113%, the viability, T/C (second compound 0.0316 µM, first compound 0.03 µM) was 114% and the viability, T/C (second compound 0.0316 µM, first compound 0.0949 µM) was 74.5%. For the same molecule, the viability, T/C (second compound 0.0316 µM, first compound 0.3 µM) was 41.2%, the viability, T/C (second compound 0.0316 µM, first compound 0.949 µM) was 19.1% and the viability, T/C (second compound 0.0316 µM, first compound 3 µM) was 9.26%. It also gave a viability, T/C (second compound 0.1 µM, first compound 0.00949 µM) of 104%, a viability, T/C (second compound 0.1 µM, first compound 0.03 µM) of 80.3% and a viability, T/C (second compound 0.1 µM, first compound 0.0949 µM) of 53.4%. It also gave a viability, T/C (second compound 0.1 µM, first compound 0.3 µM) of 24.4%, a viability, T/C (second compound 0.1 µM, first compound 0.949 µM) of 9.65% and a viability, T/C (second compound 0.1 µM, first compound 3 µM) of 2.06%. It also gave a viability, T/C (second compound 0.316 µM, first compound 0.00949 µM) of 13.1%, a viability, T/C (second compound 0.316 µM, first compound 0.03 µM) of 10.7% and a viability, T/C (second compound 0.316 µM, first compound 0.0949 µM) of 1.47%. For the same molecule, the viability, T/C (second compound 0.316 µM, first compound 0.3 µM) was 0.24%, the viability, T/C (second compound 0.316 µM, first compound 0.949 µM) was 0.92% and the viability, T/C (second compound 0.316 µM, first compound 3 µM) was 2.69%. For the same molecule, the viability, T/C (second compound 1 µM, first compound 0.00949 µM) was 0.11%, the viability, T/C (second compound 1 µM, first compound 0.03 µM) was 0.13% and the viability, T/C (second compound 1 µM, first compound 0.0949 µM) was 1.63%. The viability, T/C (second compound 1 µM, first compound 0.3 µM) was 0.1%, the viability, T/C (second compound 1 µM, first compound 0.949 µM) was 0.37% and the viability, T/C (second compound 1 µM, first compound 3 µM) was 0.09%. For the same molecule, the viability, T/C (second compound 3.16 µM, first compound 0.00949 µM) was 0.08%, the viability, T/C (second compound 3.16 µM, first compound 0.03 µM) was 0.11% and the viability, T/C (second compound 3.16 µM, first compound 0.0949 µM) was 0.16%. It also gave a viability, T/C (second compound 3.16 µM, first compound 0.3 µM) of 0.13%, a viability, T/C (second compound 3.16 µM, first compound 0.949 µM) of 0.13% and a viability, T/C (second compound 3.16 µM, first compound 3 µM) of 2.73%. It also gave a viability, T/C (second compound 10 µM, first compound 0.00949 µM) of 0.1%, a viability, T/C (second compound 10 µM, first compound 0.03 µM) of 0.13% and a viability, T/C (second compound 10 µM, first compound 0.0949 µM) of 0.41%. It also gave a viability, T/C (second compound 10 µM, first compound 0.3 µM) of 0.23%, a viability, T/C (second compound 10 µM, first compound 0.949 µM) of 0.23% and a viability, T/C (second compound 10 µM, first compound 3 µM) of 1.29%.
